# “And” between values parts separate entries of the source, which are not always exact repeats. Identical values can stand only once. Like-named read-outs stand apart in the source and are kept apart here.
# Tests used:
# Assay in all cases: cell-based
# hNav1.4 = hNav1.4 (Homo sapiens, UniProt P35499); conditions: for IC50: PatchXpress, read-out: PX hNav1.4 Tonic IC50
# hNav1.5 = hNav1.5 (Homo sapiens, UniProt Q14524); conditions: for IC50: PatchXpress, read-out: PX hNav1.5 Tonic IC50
# hNav1.7 = hNav1.7 (Homo sapiens, UniProt Q15858); format: cell-based; conditions: PatchXpress, tonic block; read-out: PX hNav1.7 Tonic IC50
# [1] = * = at high concentrations compound would wash off slowly or not at all
# Sequence of hNav1.7 (Q15858 whole entry): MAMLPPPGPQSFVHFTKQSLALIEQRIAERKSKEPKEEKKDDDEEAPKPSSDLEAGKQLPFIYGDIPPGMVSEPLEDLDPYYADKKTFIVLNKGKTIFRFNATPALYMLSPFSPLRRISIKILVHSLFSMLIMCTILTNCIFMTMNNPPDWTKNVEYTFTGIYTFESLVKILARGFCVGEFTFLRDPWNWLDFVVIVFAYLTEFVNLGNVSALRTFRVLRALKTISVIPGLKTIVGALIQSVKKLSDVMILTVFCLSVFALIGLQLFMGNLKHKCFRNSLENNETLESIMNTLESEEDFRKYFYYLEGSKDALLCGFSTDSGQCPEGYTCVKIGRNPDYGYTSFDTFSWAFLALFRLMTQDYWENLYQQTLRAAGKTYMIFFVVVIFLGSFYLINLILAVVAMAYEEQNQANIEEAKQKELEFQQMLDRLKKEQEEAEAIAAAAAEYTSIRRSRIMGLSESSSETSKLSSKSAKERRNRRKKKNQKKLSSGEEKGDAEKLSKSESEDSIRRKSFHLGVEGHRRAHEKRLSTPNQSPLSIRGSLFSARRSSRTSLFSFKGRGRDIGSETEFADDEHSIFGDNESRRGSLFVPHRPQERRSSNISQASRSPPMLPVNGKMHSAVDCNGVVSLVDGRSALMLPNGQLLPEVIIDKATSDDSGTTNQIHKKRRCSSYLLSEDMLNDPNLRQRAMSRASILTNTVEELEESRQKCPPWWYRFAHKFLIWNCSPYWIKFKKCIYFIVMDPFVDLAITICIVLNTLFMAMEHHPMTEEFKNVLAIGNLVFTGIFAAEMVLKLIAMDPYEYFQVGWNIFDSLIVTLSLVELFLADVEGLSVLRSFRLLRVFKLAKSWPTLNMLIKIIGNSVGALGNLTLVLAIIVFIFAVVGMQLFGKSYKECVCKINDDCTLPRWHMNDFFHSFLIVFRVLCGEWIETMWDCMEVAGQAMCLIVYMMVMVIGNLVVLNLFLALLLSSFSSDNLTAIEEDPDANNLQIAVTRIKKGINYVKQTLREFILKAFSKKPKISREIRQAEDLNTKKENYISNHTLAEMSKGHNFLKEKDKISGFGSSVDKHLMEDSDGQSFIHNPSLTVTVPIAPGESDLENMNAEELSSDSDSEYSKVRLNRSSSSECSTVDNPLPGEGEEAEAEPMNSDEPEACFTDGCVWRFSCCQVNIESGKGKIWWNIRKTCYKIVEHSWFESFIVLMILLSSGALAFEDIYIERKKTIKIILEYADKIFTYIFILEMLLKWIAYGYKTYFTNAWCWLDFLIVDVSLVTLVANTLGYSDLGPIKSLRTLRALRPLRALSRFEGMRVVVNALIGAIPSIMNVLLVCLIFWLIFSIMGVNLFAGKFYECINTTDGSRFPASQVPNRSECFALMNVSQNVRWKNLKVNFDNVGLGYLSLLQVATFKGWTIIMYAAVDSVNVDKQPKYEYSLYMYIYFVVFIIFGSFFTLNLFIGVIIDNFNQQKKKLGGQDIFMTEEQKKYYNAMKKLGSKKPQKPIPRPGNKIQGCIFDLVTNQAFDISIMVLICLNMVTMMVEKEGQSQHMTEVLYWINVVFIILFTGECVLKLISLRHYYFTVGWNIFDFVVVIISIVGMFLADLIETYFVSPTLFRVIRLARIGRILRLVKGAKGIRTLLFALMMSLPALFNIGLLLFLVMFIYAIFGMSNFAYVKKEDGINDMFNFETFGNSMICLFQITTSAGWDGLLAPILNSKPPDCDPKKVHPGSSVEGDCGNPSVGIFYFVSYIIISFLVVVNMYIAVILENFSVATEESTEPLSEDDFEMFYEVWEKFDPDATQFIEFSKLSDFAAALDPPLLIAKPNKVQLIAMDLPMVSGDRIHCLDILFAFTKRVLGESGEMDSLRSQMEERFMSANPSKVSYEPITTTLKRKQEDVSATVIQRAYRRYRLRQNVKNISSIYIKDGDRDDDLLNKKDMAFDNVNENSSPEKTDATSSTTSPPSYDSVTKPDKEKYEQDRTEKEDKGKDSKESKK
# Sequence of hNav1.4 (P35499 whole entry): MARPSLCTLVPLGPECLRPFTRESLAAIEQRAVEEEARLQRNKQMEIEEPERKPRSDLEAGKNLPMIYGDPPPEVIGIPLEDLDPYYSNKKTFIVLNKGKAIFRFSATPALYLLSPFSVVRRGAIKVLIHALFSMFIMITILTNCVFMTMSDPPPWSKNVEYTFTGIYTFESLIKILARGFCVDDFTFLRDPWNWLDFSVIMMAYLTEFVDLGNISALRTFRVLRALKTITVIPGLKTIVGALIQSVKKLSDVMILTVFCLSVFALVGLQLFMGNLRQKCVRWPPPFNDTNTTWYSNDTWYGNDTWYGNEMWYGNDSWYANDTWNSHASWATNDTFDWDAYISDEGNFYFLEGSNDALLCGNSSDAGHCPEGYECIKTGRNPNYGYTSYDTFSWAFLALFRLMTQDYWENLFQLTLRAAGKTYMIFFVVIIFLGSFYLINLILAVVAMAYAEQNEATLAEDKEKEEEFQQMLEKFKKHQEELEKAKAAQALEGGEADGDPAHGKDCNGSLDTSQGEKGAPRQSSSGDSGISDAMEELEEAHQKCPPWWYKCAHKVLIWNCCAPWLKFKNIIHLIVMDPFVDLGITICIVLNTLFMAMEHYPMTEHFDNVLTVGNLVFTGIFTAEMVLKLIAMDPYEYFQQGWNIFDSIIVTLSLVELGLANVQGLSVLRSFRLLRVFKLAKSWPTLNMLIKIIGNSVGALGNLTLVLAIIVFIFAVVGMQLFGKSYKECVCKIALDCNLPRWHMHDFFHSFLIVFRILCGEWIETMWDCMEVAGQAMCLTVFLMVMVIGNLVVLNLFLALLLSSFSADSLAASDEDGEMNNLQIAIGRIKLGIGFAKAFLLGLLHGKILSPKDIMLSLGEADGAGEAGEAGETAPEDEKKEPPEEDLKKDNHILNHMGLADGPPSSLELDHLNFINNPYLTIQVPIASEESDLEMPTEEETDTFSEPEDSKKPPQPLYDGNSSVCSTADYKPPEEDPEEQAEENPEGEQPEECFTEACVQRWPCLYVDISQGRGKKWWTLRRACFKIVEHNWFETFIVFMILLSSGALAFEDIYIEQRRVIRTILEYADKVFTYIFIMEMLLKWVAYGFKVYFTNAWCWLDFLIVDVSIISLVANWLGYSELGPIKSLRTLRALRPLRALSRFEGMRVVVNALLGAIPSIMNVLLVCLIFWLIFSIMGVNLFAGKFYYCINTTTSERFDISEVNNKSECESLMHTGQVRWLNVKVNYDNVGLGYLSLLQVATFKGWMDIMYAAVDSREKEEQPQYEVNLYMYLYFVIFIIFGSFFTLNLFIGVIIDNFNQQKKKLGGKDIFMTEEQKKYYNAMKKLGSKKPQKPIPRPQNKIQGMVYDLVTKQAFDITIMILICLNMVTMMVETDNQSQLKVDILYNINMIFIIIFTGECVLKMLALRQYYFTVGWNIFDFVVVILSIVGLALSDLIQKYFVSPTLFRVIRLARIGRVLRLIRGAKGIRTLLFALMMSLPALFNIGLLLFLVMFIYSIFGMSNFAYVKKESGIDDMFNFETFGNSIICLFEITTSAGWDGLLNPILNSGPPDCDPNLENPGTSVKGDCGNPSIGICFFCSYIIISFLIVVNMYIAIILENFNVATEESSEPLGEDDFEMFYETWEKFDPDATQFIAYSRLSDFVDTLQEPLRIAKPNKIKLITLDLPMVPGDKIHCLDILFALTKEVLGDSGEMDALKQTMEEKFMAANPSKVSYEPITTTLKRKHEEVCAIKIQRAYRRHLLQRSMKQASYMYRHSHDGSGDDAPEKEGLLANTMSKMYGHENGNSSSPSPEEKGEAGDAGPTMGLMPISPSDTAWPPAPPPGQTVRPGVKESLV
SMILES,IC50 (hNav1.4; tonic block),IC50 (hNav1.7),also measured
C#CC[C@H](N)C(=O)NCCCC[C@@H]1NC(=O)[C@H](CCCNC(=N)N)NC(=O)[C@H](CCCCN)NC(=O)[C@H](CO)NC(=O)[C@H](CC(=O)O)NC(=O)[C@@H]2CSSC[C@@H]3NC(=O)[C@H](CCCNC(=N)N)NC(=O)[C@H](CC(C)C)NC(=O)CNC(=O)[C@H](CCC(=O)O)NC(=O)[C@H](CSSC[C@H](NC(=O)[C@H](Cc4ccc(O)cc4)NC(=O)[C@@H](N)CC#N)C(=O)N[C@@H](CCC(N)=O)C(=O)N[C@@H](CCCCN)C(=O)N[C@@H](Cc4c[nH]c5ccccc45)C(=O)N[C@@H](CCCC)C(=O)N[C@@H](Cc4c[nH]c5ccccc45)C(=O)N[C@@H]([C@@H](C)O)C(=O)N2)NC(=O)[C@H](CSSC[C@@H](C(=O)N[C@@H](CCCNC(=N)N)C(=O)N[C@@H](CCCCN)C(=O)N[C@@H](CCC(=O)O)C(=O)N[C@H](C(N)=O)[C@@H](C)CC)NC(=O)[C@H](Cc2c[nH]c4ccccc24)NC(=O)[C@H](CC(C)C)NC(=O)[C@H](CCCCN)NC3=O)NC1=O [compound 392],86.1 nM and 124 nM,,IC50 (hNav1.5; tonic block): 920 nM and 1450 nM and 2160 nM
"CCCC[C@@H]1NC(=O)[C@H](Cc2c[nH]c3ccccc23)NC(=O)[C@H](CCCCN)NC(=O)[C@H](CCC(N)=O)NC(=O)[C@@H](NC(=O)[C@H](Cc2ccc(O)cc2)NC(=O)[C@@H](N)Cc2cn(CCOCCOCCOCCOCCOCCOCCOCCOCCOCCOCCOCCOCCOCCOCCOCCOCCOCCOCCOCCOCCOCCOCCOCCNC(=O)c3cc(CNC(=O)CSCc4ccccc4)cc(C(=O)NCCOCCOCCOCCOCCOCCOCCOCCOCCOCCOCCOCCOCCOCCOCCOCCOCCOCCOCCOCCOCCOCCOCCOCCn4cc(C[C@H](N)C(=O)N[C@@H](Cc5ccc(O)cc5)C(=O)N[C@H]5CSSC[C@@H]6NC(=O)[C@@H]7CSSC[C@@H](C(=O)N[C@@H](CCCNC(=N)N)C(=O)N[C@@H](CCCCN)C(=O)N[C@H](C(=O)N[C@H](C(N)=O)[C@@H](C)CC)[C@@H](C)CC)NC(=O)[C@H](Cc8c[nH]c9ccccc89)NC(=O)[C@H](CC(C)C)NC(=O)[C@H](CCCCN)NC(=O)[C@H](CSSC[C@H](NC(=O)[C@H]([C@@H](C)O)NC(=O)[C@H](Cc8c[nH]c9ccccc89)NC(=O)[C@H](CCCC)NC(=O)[C@H](Cc8c[nH]c9ccccc89)NC(=O)[C@H](CCCCN)NC(=O)[C@H](CCC(N)=O)NC5=O)C(=O)N[C@@H](CC(=O)O)C(=O)N[C@@H](CO)C(=O)N[C@@H](CCCCN)C(=O)N[C@@H](CCCNC(=N)N)C(=O)N[C@@H](C)C(=O)N7)NC(=O)[C@H](CCCNC(=N)N)NC(=O)[C@H](CC(C)C)NC(=O)CNC(=O)[C@H](CCC(=O)O)NC6=O)nn4)c3)nn2)CSSC[C@@H]2NC(=O)[C@@H]3CSSC[C@@H](C(=O)N[C@@H](CCCNC(=N)N)C(=O)N[C@@H](CCCCN)C(=O)N[C@H](C(=O)N[C@H](C(N)=O)[C@@H](C)CC)[C@@H](C)CC)NC(=O)[C@H](Cc4c[nH]c5ccccc45)NC(=O)[C@H](CC(C)C)NC(=O)[C@H](CCCCN)NC(=O)[C@H](CSSC[C@H](NC(=O)[C@H]([C@@H](C)O)NC(=O)[C@H](Cc4c[nH]c5ccccc45)NC1=O)C(=O)N[C@@H](CC(=O)O)C(=O)N[C@@H](CO)C(=O)N[C@@H](CCCCN)C(=O)N[C@@H](CCCNC(=N)N)C(=O)N[C@@H](C)C(=O)N3)NC(=O)[C@H](CCCNC(=N)N)NC(=O)[C@H](CC(C)C)NC(=O)CNC(=O)[C@H](CCC(=O)O)NC2=O [Homodimeric Conjugate No. 2, Bis-{Atz(PEG23*)-[Nle6]JzTx-V(1-29)}-5-((2-(benzylthio)acetamido)methyl)isophthalamide]",,,Nav1.4/Nav1.7 (hNav1.4; ratio of PX IC50 values): 5 and 3; IC50 (hNav1.5; [1]): 720 nM and 1180 nM
C#CC[C@@H]1NC(=O)[C@@H]2CSSC[C@H](NC(=O)[C@H](Cc3ccc(O)cc3)NC(=O)[C@@H](N)CC#N)C(=O)N[C@@H](CCC(N)=O)C(=O)N[C@@H](CCCCN)C(=O)N[C@@H](Cc3c[nH]c4ccccc34)C(=O)N[C@@H](CCCC)C(=O)N[C@@H](Cc3c[nH]c4ccccc34)C(=O)N[C@@H]([C@@H](C)O)C(=O)N[C@H]3CSSC[C@H](NC(=O)[C@H](CCCNC(=N)N)NC(=O)[C@H](CC(C)C)NC(=O)CNC1=O)C(=O)N[C@@H](CCCCN)C(=O)N[C@@H](CC(C)C)C(=O)N[C@@H](Cc1c[nH]c4ccccc14)C(=O)N[C@H](C(=O)N[C@@H](CCCNC(=N)N)C(=O)N[C@@H](CCCCN)C(=O)N[C@@H](CCC(=O)O)C(=O)N[C@H](C(N)=O)[C@@H](C)CC)CSSC[C@H](NC(=O)[C@H](C)NC(=O)[C@H](CCCNC(=N)N)NC(=O)[C@H](CCCCN)NC(=O)[C@H](CO)NC(=O)[C@H](CC(=O)O)NC3=O)C(=O)N2 [compound 395],62.5 nM and 212 nM,,IC50 (hNav1.5; tonic block): 710 nM
C#CC[C@H](N)C(=O)NCCCC[C@@H]1NC(=O)[C@H](CCCNC(=N)N)NC(=O)[C@H](CCCCN)NC(=O)[C@H](CO)NC(=O)[C@H](CC(=O)O)NC(=O)[C@@H]2CSSC[C@@H]3NC(=O)[C@H](CCC(=O)O)NC(=O)[C@H](CC(C)C)NC(=O)CNC(=O)[C@H](CCC(=O)O)NC(=O)[C@H](CSSC[C@H](NC(=O)[C@H](Cc4ccc(O)cc4)NC(=O)[C@@H](N)CC#N)C(=O)N[C@@H](CCC(N)=O)C(=O)N[C@@H](CCCCN)C(=O)N[C@@H](Cc4c[nH]c5ccccc45)C(=O)N[C@@H](CCCC)C(=O)N[C@@H](Cc4c[nH]c5ccccc45)C(=O)N[C@@H]([C@@H](C)O)C(=O)N2)NC(=O)[C@H](CSSC[C@@H](C(=O)N[C@@H](CCCNC(=N)N)C(=O)N[C@@H](CCCCN)C(=O)N[C@H](C(=O)N[C@H](C(N)=O)[C@@H](C)CC)[C@@H](C)CC)NC(=O)[C@H](Cc2c[nH]c4ccccc24)NC(=O)[C@H](CC(C)C)NC(=O)[C@H](CCCCN)NC3=O)NC1=O [compound 393],> 10000 nM,> 100 nM,
C#CC[C@@H]1NC(=O)[C@@H]2CSSC[C@H](NC(=O)[C@H](Cc3ccc(O)cc3)NC(=O)[C@@H](N)CC#N)C(=O)N[C@@H](CCC(N)=O)C(=O)N[C@@H](CCCCN)C(=O)N[C@@H](Cc3c[nH]c4ccccc34)C(=O)N[C@@H](CCCC)C(=O)N[C@@H](Cc3c[nH]c4ccccc34)C(=O)N[C@@H]([C@@H](C)O)C(=O)N[C@H]3CSSC[C@H](NC(=O)[C@H](CCC(=O)O)NC(=O)[C@H](CC(C)C)NC(=O)CNC1=O)C(=O)N[C@@H](CCCCN)C(=O)N[C@@H](CC(C)C)C(=O)N[C@@H](Cc1c[nH]c4ccccc14)C(=O)N[C@H](C(=O)N[C@@H](CCCNC(=N)N)C(=O)N[C@@H](CCCCN)C(=O)N[C@@H](Cc1ccc(O)cc1)C(=O)N[C@H](C(N)=O)[C@@H](C)CC)CSSC[C@H](NC(=O)[C@H](C)NC(=O)[C@H](CCCNC(=N)N)NC(=O)[C@H](CCCCN)NC(=O)[C@H](CO)NC(=O)[C@H](CC(=O)O)NC3=O)C(=O)N2 [compound 397],1760 nM,87.1 nM,Nav1.4/Nav1.7 (hNav1.4; ratio of PX tonic IC50 values): 20
CC[C@H](C)[C@H](NC(=O)[C@H](CCCCN)NC(=O)[C@H](CCCNC(=N)N)NC(=O)[C@@H]1CSSC[C@@H]2NC(=O)[C@H](C)NC(=O)[C@H](CCCNC(=N)N)NC(=O)[C@H](CCCCN)NC(=O)[C@H](CO)NC(=O)[C@H](CC(=O)O)NC(=O)[C@@H]3CSSC[C@H](NC(=O)[C@H](CCCNC(=N)N)NC(=O)[C@H](CC(C)C)NC(=O)CNC(=O)[C@H](CCC(=O)O)NC(=O)[C@H](CSSC[C@H](NC(=O)[C@@H](N)Cc4ccc(O)cc4)C(=O)N[C@@H](CCC(N)=O)C(=O)N[C@@H](CCCCN)C(=O)N[C@@H](Cc4c[nH]c5ccccc45)C(=O)N[C@@H](CCSC)C(=O)N[C@@H](Cc4c[nH]c5ccccc45)C(=O)N[C@@H]([C@@H](C)O)C(=O)N3)NC2=O)C(=O)N[C@@H](CCCCN)C(=O)N[C@@H](CC(C)C)C(=O)N[C@@H](Cc2c[nH]c3ccccc23)C(=O)N1)C(=O)N[C@@H](CCC(=O)O)C(N)=O [compound 70],,,IC50 (hNav1.4; [1]): 11300 nM; Nav1.4/Nav1.7 (hNav1.4; ratio of PX IC50 values): 43; IC50 (hNav1.5; [1]): > 10000 nM; Nav1.5/Nav1.7 (hNav1.5; ratio of PX IC50 values): >38
C#CC[C@H](N)C(=O)NCCCC[C@@H]1NC(=O)[C@H](CCCNC(=N)N)NC(=O)[C@H](CCCCN)NC(=O)[C@H](CO)NC(=O)[C@H](CC(=O)O)NC(=O)[C@@H]2CSSC[C@@H]3NC(=O)[C@H](CCC(=O)O)NC(=O)[C@H](CC(C)C)NC(=O)CNC(=O)[C@H](CCC(=O)O)NC(=O)[C@H](CSSC[C@H](NC(=O)[C@H](Cc4ccc(O)cc4)NC(=O)[C@@H](N)CC#N)C(=O)N[C@@H](CCC(N)=O)C(=O)N[C@@H](CCCCN)C(=O)N[C@@H](Cc4c[nH]c5ccccc45)C(=O)N[C@@H](CCCC)C(=O)N[C@@H](Cc4c[nH]c5ccccc45)C(=O)N[C@@H]([C@@H](C)O)C(=O)N2)NC(=O)[C@H](CSSC[C@@H](C(=O)N[C@@H](CCCNC(=N)N)C(=O)N[C@@H](CCCCN)C(=O)N[C@@H](Cc2ccc(O)cc2)C(=O)N[C@H](C(N)=O)[C@@H](C)CC)NC(=O)[C@H](Cc2c[nH]c4ccccc24)NC(=O)[C@H](CC(C)C)NC(=O)[C@H](CCCCN)NC3=O)NC1=O [compound 394],964 nM,0.05 nM,
C#CC[C@H](N)C(=O)NCCOCCOCCOCCOCCC(=O)NCCCC[C@@H]1NC(=O)[C@H](CCCNC(=N)N)NC(=O)[C@H](CCCCN)NC(=O)[C@H](CO)NC(=O)[C@H](CC(=O)O)NC(=O)[C@@H]2CSSC[C@@H]3NC(=O)[C@H](CCCNC(=N)N)NC(=O)[C@H](CC(C)C)NC(=O)CNC(=O)[C@H](CCC(=O)O)NC(=O)[C@H](CSSC[C@H](NC(=O)[C@H](Cc4ccc(O)cc4)NC(=O)[C@@H](N)CCC)C(=O)N[C@@H](CCC(N)=O)C(=O)N[C@@H](CCCCN)C(=O)N[C@@H](Cc4c[nH]c5ccccc45)C(=O)N[C@@H](CCCC)C(=O)N[C@@H](Cc4c[nH]c5ccccc45)C(=O)N[C@@H]([C@@H](C)O)C(=O)N2)NC(=O)[C@H](CSSC[C@@H](C(=O)N[C@@H](CCCNC(=N)N)C(=O)N[C@@H](CCCCN)C(=O)N[C@H](C(=O)N[C@H](C(N)=O)[C@@H](C)CC)[C@@H](C)CC)NC(=O)[C@H](Cc2c[nH]c4ccccc24)NC(=O)[C@H](CC(C)C)NC(=O)[C@H](CCCCN)NC3=O)NC1=O [compound 432],16.5 nM,1.43 nM and 1.56 nM,Nav1.4/Nav1.7 (hNav1.4; ratio of PX tonic IC50 values): 12
